Measured values taken from ChEMBL document CHEMBL1782053, “Differences in CYP3A4 catalyzed bioactivation of 5-aminooxindole and 5-aminobenzsultam scaffolds in proline-rich tyrosine kinase 2 (PYK2) inhibitors: retrospective analysis by CYP3A4 molecular docking, quantum chemical calculations and glutathione adduct detection using linear ion trap/orbitrap …” (Bioorg Med Chem Lett, 2009).

Experiments:
[1] = Dissociation constant, pKa of the compound; assay type: physicochemical
[2] = system: Liver microsomes; test: Metabolic stability in human liver microsome assessed as level of GSH adduct at 1 to 10 uM by ion trap/orbitrap MS analysis; assay type: ADME
[3] = system: Liver microsomes; test: Metabolic stability in human liver microsome assessed as level of GSH adduct at 20 uM by ion trap/orbitrap MS analysis; assay type: ADME

pKa [1] | Stability [2] | Stability [3] | SMILES
9.26 | Stable | Unstable | CN(C)[C@@H]1CCC[C@H]1Nc1nc(Nc2ccc3c(c2)CS(=O)(=O)N3)ncc1C(F)(F)F
13.7 |  |  | CN(C)[C@@H]1CCC[C@H]1Nc1nc(Nc2ccc3c(c2)CC(=O)N3)ncc1C(F)(F)F
